From ChEMBL document CHEMBL5500328, “Comprehensive review on the elaboration of payloads derived from natural products for antibody-drug conjugates” (Eur J Med Chem, 2024)

How the values were obtained:
[1] = Cytotoxicity against human L540cy assessed as reduction in cell growth incubated for 4 days by CellTiter-Glo assay; format: functional, cell-based; conditions: 96 h
Tubulin = test: Binding affinity to tubulin (unknown origin) assessed as dissociation constant by SPR analysis; format: protein-complex assay, Homo sapiens
KB 3-1 = test: Cytotoxicity against human KB-3-1 cells assessed as inhibition of cell growth; format: functional, cell-based
LoVo = test: Cytotoxicity against human LoVo cells; format: functional, cell-based
KB = test: Cytotoxicity against human KB cells assessed as reduction in cell viability; format: functional, cell-based
CCRF-CEM = test: Cytotoxicity against human CCRF-CEM cells assessed as reduction in cell growth; format: functional, cell-based

Question: For `CC[C@@]1(O)C(=O)OCc2c1cc1n(c2=O)Cc2cc3c(CN)c4c(cc3nc2-1)OCO4`, which IC50 [1] is on record?
Answer: Its IC50 is 1 nM.

Question: With `COc1ccc(C[C@H]2NC(=O)/C=C/C[C@@H]([C@H](C)[C@H]3O[C@H]3c3ccccc3)OC(=O)[C@H](CC(C)C)OC(=O)C(C)(C)CNC2=O)cc1Cl` as the compound, how does the Kd (Tubulin) read?
Answer: The Kd was 47 nM.

Question: What about the IC50 (KB 3-1) of the same compound?
Answer: The IC50 was 0.015 nM.

Question: Which IC50 (LoVo) does the source give for `COc1ccc(C[C@H]2NC(=O)/C=C/C[C@@H]([C@H](C)[C@H]3O[C@H]3c3ccccc3)OC(=O)[C@H](CC(C)C)OC(=O)[C@H](C)CNC2=O)cc1Cl` [CRYPTOPHYCIN 39] here?
Answer: Its IC50 is 0.00763 nM.

Question: What about the IC50 (KB) of the same compound?
Answer: Its IC50 is 0.00458 nM.

Question: For `COc1ccc(C[C@H]2NC(=O)/C=C/C[C@@H]([C@H](C)[C@H]3O[C@H]3c3ccc(F)cc3)OC(=O)[C@H](CC(C)C)OC(=O)C(C)(C)CNC2=O)cc1Cl`, which IC50 (CCRF-CEM) is on record?
Answer: Its IC50 is 0.033 nM.
